Measurements published in the supplement of paper PMC8671470.

Key:
Settings in all cases: 72 h
[1] = tested on: myeloid leukemia patient primary cells Pat.12; assay: cell viability (% survival relative to DMSO control); higher = less cytotoxic
Summary of the method: (§1)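 Mononuclear cells from patients with AML or CML were thawed, purified on Ficoll and placed in RPMI 1640 with 10% FBS at 10,000 cells/well on 384-well plates. The plates came pre-printed with 70 compounds at five tenfold concentrations spanning 1–10,000 nM, in duplicate, and cells were exposed for 72 h. CellTiter-Glo gave viability, scaled between DMSO wells and wells with 10 μM proteasome inhibitor. Where reported, area under the curve was obtained from log-logistic fits with four parameters using the drc and PharmacoGx R packages.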

[2] = tested on: myeloid leukemia patient primary cells Pat.6; assay: as above
Summary of the method: as §1

[3] = tested on: myeloid leukemia patient primary cells Pat.4; assay: as above
Summary of the method: as §1

[4] = tested on: myeloid leukemia patient primary cells Pat.3; assay: as above
Summary of the method: as §1

[5] = tested on: myeloid leukemia patient primary cells Pat.1; assay: as above
Summary of the method: as §1

[6] = tested on: myeloid leukemia patient primary cells Pat.5; assay: as above
Summary of the method: as §1

[7] = tested on: myeloid leukemia patient primary cells Pat.15; assay: as above
Summary of the method: as §1

[8] = tested on: myeloid leukemia patient primary cells Pat.13; assay: as above
Summary of the method: as §1

[9] = tested on: myeloid leukemia patient primary cells Pat.11; assay: as above
Summary of the method: as §1

[10] = tested on: myeloid leukemia patient primary cells Pat.9; assay: as above
Summary of the method: as §1

[11] = tested on: myeloid leukemia patient primary cells Pat.2; assay: as above
Summary of the method: as §1

[12] = tested on: myeloid leukemia patient primary cells Pat.10; assay: as above
Summary of the method: as §1

[13] = tested on: myeloid leukemia patient primary cells Pat.8; assay: as above
Summary of the method: as §1

[14] = tested on: myeloid leukemia patient primary cells Pat.7; assay: as above
Summary of the method: as §1

[15] = tested on: myeloid leukemia patient primary cells Pat.14; assay: as above
Summary of the method: as §1

Mono-Mac-6 = assay: cell viability (% survival relative to DMSO control, bortezomib = 0%); higher = less cytotoxic
Summary of the method: (§2)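 In 384-well plates pre-printed with compounds at 1, 10, 100, 1000 or 10000 nM, duplicate wells received cells from 10 AML and 5 CML lines at densities within the linear growth range. The plates stayed at 37 °C with 5% CO2 for 72 h before CellTiter-Glo luminescence was recorded. Each entry is averaged percent survival. Scaling placed vehicle at 100% and a 10 µM positive control at 0%.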

NOMO-1 = assay: as above
Summary of the method: as §2

KU-812 = assay: as above
Summary of the method: as §2

THP-1 = assay: as above
Summary of the method: as §2

SMILES: O=C(c1c2ccccc2cc2ccccc12)N1CCC(N2CCC[C@@H](C(=O)N3CCOCC3)C2)CC1
- cell viability ([1]; 1 nM): > 100%
- cell viability ([1]; 10 nM): 92%
- cell viability ([1]; 100 nM): 99.7%
- cell viability ([1]; 1000 nM): 80.6%
- cell viability ([1]; 10000 nM): 96.9%
- cell viability ([2]; 1 nM): 99.8%
- cell viability ([2]; 10 nM): 96.8%
- cell viability ([2]; 100 nM): 96.6%
- cell viability ([2]; 1000 nM): 74.9%
- cell viability ([2]; 10000 nM): 96.6%
- cell viability ([3]; 1 nM): 92.6%
- cell viability ([3]; 10 nM): 95%
- cell viability ([3]; 100 nM): 90.2%
- cell viability ([3]; 1000 nM): 65.1%
- cell viability ([3]; 10000 nM): 60.7%
- cell viability ([4]; 1 nM): > 100%
- cell viability ([4]; 10 nM): 96.9%
- cell viability ([4]; 100 nM): > 100%
- cell viability ([4]; 1000 nM): 52.6%
- cell viability ([4]; 10000 nM): 78.8%
- cell viability ([5]; 1 nM): > 100%
- cell viability ([5]; 10 nM): 83%
- cell viability ([5]; 100 nM): > 100%
- cell viability ([5]; 1000 nM): 58.3%
- cell viability ([5]; 10000 nM): 96.7%
- cell viability ([6]; 1 nM): 89.3%
- cell viability ([6]; 10 nM): 67.2%
- cell viability ([6]; 100 nM): 94.9%
- cell viability ([6]; 1000 nM): 0.265%
- cell viability ([6]; 10000 nM): 69.8%
- cell viability ([7]; 1 nM): 93.9%
- cell viability ([7]; 10 nM): 94.5%
- cell viability ([7]; 100 nM): 84.5%
- cell viability ([7]; 1000 nM): 71.3%
- cell viability ([7]; 10000 nM): 88.6%
- cell viability ([8]; 1 nM): 85.6%
- cell viability ([8]; 10 nM): 89.6%
- cell viability ([8]; 100 nM): 92.9%
- cell viability ([8]; 1000 nM): 62.8%
- cell viability ([8]; 10000 nM): 86.7%
- cell viability ([9]; 1 nM): 99.3%
- cell viability ([9]; 10 nM): > 100%
- cell viability ([9]; 100 nM): 92.5%
- cell viability ([9]; 1000 nM): 72.6%
- cell viability ([9]; 10000 nM): 98%
- cell viability ([10]; 1 nM): 63.1%
- cell viability ([10]; 10 nM): 88.4%
- cell viability ([10]; 100 nM): 77.5%
- cell viability ([10]; 1000 nM): 2.84%
- cell viability ([10]; 10000 nM): 71.4%
- cell viability ([11]; 1 nM): 94.4%
- cell viability ([11]; 10 nM): 99.4%
- cell viability ([11]; 100 nM): 98%
- cell viability ([11]; 1000 nM): 75.4%
- cell viability ([11]; 10000 nM): 98.1%
- cell viability ([12]; 1 nM): 88.3%
- cell viability ([12]; 10 nM): 67.9%
- cell viability ([12]; 100 nM): 78.7%
- cell viability ([12]; 1000 nM): 29.7%
- cell viability ([12]; 10000 nM): 80.8%
- cell viability ([13]; 1 nM): 87.7%
- cell viability ([13]; 10 nM): > 100%
- cell viability ([13]; 100 nM): 93.3%
- cell viability ([13]; 1000 nM): 69.3%
- cell viability ([13]; 10000 nM): 87.5%
- cell viability ([14]; 1 nM): 94.1%
- cell viability ([14]; 10 nM): 87.2%
- cell viability ([14]; 100 nM): 87.3%
- cell viability ([14]; 1000 nM): 19%
- cell viability ([14]; 10000 nM): 76.8%
- cell viability ([15]; 1 nM): 88.9%
- cell viability ([15]; 10 nM): 98.9%
- cell viability ([15]; 100 nM): 98.2%
- cell viability ([15]; 1000 nM): 56.4%
- cell viability ([15]; 10000 nM): 94.4%
- cell viability (Mono-Mac-6; 1 nM): 101%
- cell viability (Mono-Mac-6; 10 nM): 109%
- cell viability (Mono-Mac-6; 100 nM): 93.4%
- cell viability (Mono-Mac-6; 1000 nM): 89.1%
- cell viability (Mono-Mac-6; 10000 nM): 75.8%
- cell viability (NOMO-1; 1 nM): 106%
- cell viability (NOMO-1; 10 nM): 108%
- cell viability (NOMO-1; 100 nM): 104%
- cell viability (NOMO-1; 1000 nM): 99.6%
- cell viability (NOMO-1; 10000 nM): 95.2%
- cell viability (KU-812; 1 nM): 100%
- cell viability (KU-812; 10 nM): 108%
- cell viability (KU-812; 100 nM): 103%
- cell viability (KU-812; 1000 nM): 95.3%
- cell viability (KU-812; 10000 nM): 96%
- cell viability (THP-1; 1 nM): 106%
- cell viability (THP-1; 10 nM): 96.6%
- cell viability (THP-1; 100 nM): 115%
- cell viability (THP-1; 1000 nM): 94.9%
- cell viability (THP-1; 10000 nM): 100%
